Measurements: US9290496B2, “Purine derivatives” (PFIZER INC., priority 2013, dated 2016)

Tests used:
[1] = target: T1, EGFR wildtype, endogenous (A549) (Homo sapiens, UniProt P00533); assay: pEGFR Y1068 ELISA assay, A549 cells; type: cell-based; details: inhibition of phosphorylation of EGFR at Tyr1068; A549 NSCLC cells; 2 hr compound incubation, then stimulated 10 min with EGF (40 ng/mL)
T1 construct: A549 (EGFR wildtype, endogenous); host or cells: A549 (stimulated with EGF)

[2] = target: T2, EGFR L858R+T790M, endogenous (NCI-H1975) (Homo sapiens, UniProt P00533, L858R/T790M); assay: pEGFR Y1068 ELISA assay, NCI-H1975 cells; type: cell-based; details: inhibition of phosphorylation of EGFR at Tyr1068; NCI-H1975 NSCLC cells; 2 hr compound incubation
T2 construct: NCI-H1975 (EGFR L858R+T790M, endogenous); host or cells: NCI-H1975
T2 sequence (P00533 25-1210 T790M/L858R): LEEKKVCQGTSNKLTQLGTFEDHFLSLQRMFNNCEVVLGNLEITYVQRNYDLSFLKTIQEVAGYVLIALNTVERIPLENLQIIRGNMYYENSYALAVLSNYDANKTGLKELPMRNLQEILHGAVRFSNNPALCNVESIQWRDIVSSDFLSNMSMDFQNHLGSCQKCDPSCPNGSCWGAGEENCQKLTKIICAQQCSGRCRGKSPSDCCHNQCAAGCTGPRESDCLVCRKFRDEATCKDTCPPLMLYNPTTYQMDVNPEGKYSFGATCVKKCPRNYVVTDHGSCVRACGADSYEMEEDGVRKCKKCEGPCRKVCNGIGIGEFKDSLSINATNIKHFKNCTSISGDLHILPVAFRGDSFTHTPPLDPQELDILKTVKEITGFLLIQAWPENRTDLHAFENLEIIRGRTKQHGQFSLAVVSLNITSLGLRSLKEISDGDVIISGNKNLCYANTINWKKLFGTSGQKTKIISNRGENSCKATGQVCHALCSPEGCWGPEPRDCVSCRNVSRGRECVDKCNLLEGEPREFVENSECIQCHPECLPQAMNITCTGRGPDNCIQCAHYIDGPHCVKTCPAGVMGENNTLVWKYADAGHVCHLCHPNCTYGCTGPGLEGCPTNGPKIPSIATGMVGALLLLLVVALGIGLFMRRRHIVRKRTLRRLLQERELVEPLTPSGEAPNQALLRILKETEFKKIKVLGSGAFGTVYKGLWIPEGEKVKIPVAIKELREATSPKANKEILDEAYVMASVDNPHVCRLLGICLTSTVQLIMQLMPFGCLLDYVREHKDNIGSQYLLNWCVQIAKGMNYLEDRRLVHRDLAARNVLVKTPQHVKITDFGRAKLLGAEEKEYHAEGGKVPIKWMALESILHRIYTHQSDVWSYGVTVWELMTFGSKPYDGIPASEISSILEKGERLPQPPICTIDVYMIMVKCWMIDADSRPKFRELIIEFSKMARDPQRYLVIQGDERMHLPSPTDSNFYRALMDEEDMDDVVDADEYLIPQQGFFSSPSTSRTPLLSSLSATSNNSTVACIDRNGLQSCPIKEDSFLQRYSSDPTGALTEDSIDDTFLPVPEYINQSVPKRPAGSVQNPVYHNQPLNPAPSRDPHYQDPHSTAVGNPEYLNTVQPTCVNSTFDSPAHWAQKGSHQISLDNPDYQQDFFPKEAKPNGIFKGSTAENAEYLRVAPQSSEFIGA
Description: Phosphorylation of EGFR at Y1068 was measured by PathScan® Phospho-EGF Receptor (Try1068) Sandwich ELISA kit (#7240, Cell Signaling Technology®, Danvers, Mass.). The PathScan® Phospho-EGF Receptor (Tyr1068) Sandwich ELISA Kit is a solid phase sandwich enzyme-linked immunosorbent assay (ELISA) that detects endogenous levels of phospho-EGF Receptor (Tyr1068) protein. […] All cells were cultured according to ATCC recommendations. A549, NCI-H1975, PC9, and NCI-H3255 cells were grown in RPMI media (Invitrogen, Carlsbad, Calif.) supplemented with 10% FBS (Sigma, St Louis, Mo.), and with 1% Penn/Strep (Invitrogen). PC9-DRH cells were grown in RPMI with 10% FBS and 1 μM dacomitinib.
Cells were plated at 40,000/well in complete culture media (50 μL/well) on the bottom of clear tissue culture treated microtiter plates (#3595, Corning Inc, Corning, N.Y.) and allowed to adhere overnight at 37° C., 5% CO2. The following day, compound dilution plates were prepared in 96 well clear V-bottom 0.5 mL polypropylene block plates (#3956, Corning, Inc). Each compound was prepared as a DMSO stock solution (10 mM). Compounds were tested in duplicate on each plate, with an 11-point serial dilution curve (1:3 dilution). Compound treatment (50 μL) was added from the compound dilution plate to the cell plate. […] Plates were then incubated for 2 hr at 37° C., 5% CO2. For A549 (EGFR wildtype) assay, cells were plated in full-serum (10%) media for 24 hr prior to compound treatment; cells were treated in full serum media as described and then stimulated for 10 min with EGF (40 ng/mL/starvation media, Invitrogen). Immediately prior to the end of the incubation, ice-cold lysis buffer was prepared (1× Cell Lysis Buffer (#9803, Cell Signaling Technology), 1 mM sodium orthovanadate (Na3VO4, #96508, Sigma), 1 mM phenylmethanesulfonyl fluoride (PMSF, 52332, CalBiochem/EMD Chemicals), complete Mini EDTA-free Protease Inhibitor Cocktail Tablet (1 tablet/10 mL, #11836170001, Roche, Indianapolis, Ind.), and PhosSTOP Phosphatase Inhibitor Cocktail Tablet (1 tablet/10 mL, #04906837001, Roche) in pure water. At the end of 2 hr, media was flicked off and cells were washed once with ice-cold 1 mM Na3VO4 in PBS (100 μL/well, Invitrogen). The wash was then flicked off and ice-cold lysis buffer was added to the cells (50 μL/well). The plate was shaken for 20-30 min at 4° C. to completely lyse the cells. Sample diluent (50 μL/well) was added to the ELISA plate, and the lysate (50 μL) was diluted into the sample diluent in each well of the ELISA plate. Plates were sealed and incubated overnight at 4° C. with shaking. The next day, wells were washed four times with 1× Wash Buffer; plates were taped on lint-free paper after the final wash prior to adding Add Detection Antibody (green, 100 μL/well) to each well and incubating for 1 hr at 37° C. After incubation, wells were washed as described. HRP-Linked secondary antibody (red, 100 μL/well) was added to each well and incubated for 30 min at 37° C. After incubation, the wells were washed as described. TMB Substrate (100 μL/well) was added to each well and the plate incubated for 10 min at 37° C. or 30 min at rt maximum. Stop Solution (100 μL/well) was added to each well at the end of the incubation and plates were shaken gently for a few seconds. Absorbance was read at 450 nm within 30 min after addition of Stop Solution on a PerkinElmer EnVision Excite Multilabel Reader Method for Absorbance or on a Molecular Devices SpectraMax^384 Reader for absorbance. Data were analyzed using a four-parameter fit in Microsoft Excel.

T1 sequence (P00533 25-1210): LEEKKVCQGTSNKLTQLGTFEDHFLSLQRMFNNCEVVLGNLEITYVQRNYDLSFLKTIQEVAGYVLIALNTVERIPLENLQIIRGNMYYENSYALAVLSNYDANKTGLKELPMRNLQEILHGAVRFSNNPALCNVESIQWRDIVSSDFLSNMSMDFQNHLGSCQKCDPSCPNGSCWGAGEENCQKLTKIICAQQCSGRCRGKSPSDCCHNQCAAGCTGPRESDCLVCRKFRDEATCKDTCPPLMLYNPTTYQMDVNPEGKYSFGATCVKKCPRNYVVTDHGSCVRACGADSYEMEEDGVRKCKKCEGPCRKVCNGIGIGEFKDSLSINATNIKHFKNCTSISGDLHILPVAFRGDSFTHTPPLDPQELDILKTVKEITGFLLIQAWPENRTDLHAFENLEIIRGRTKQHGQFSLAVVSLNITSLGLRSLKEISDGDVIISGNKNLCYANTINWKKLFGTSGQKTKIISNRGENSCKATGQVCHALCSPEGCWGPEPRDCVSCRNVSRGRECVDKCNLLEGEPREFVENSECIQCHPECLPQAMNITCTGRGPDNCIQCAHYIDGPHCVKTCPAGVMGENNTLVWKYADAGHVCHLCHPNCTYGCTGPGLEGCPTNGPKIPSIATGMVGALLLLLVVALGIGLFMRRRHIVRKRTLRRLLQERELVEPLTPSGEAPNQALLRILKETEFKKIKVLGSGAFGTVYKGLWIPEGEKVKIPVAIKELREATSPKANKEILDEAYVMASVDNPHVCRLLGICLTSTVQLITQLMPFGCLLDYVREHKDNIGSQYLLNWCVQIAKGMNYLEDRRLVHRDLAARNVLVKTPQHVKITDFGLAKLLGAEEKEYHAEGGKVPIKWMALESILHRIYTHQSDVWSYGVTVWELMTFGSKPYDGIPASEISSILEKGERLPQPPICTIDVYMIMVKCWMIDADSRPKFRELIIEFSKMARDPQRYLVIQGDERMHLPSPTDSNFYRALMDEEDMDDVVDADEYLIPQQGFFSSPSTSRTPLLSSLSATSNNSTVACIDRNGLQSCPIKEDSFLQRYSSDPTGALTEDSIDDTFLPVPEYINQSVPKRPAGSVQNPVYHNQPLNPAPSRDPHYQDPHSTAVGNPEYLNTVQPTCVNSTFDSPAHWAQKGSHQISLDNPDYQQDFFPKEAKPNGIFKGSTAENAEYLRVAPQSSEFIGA

| IC50 [1] [µM] | IC50 [2] [µM] | SMILES |
| --- | --- | --- |
| 4.05 | 0.162 | C=CC(=O)N1CCC(Oc2nc(Nc3cnn(C)c3)c3ncn(C(C)C)c3n2)C1 (stereo in doubt) [Example 59, (R)-1-(3((9-isopropyl-6-((1-methyl-1H-pyrazol-4-yl)amino)-9H-purin-2-yl)oxy)pyrrolidin-1-yl)prop-2-en-1-one] |
| ≥ 10 | 0.846 | C=CC(=O)NC1(C)CCN(c2nc(Nc3ccc(N4CCN(C)CC4)cc3)c3ncn(C(C)C)c3n2)C1 (stereo not shown) [Example 10, N-(1-(9-isopropyl-6-((4-(4-methylpiperazin-1-yl)phenyl)amino)-9H-purin-2-yl)-3-methylpyrrolidin-3-yl)acrylamide] |
| 2.84 | 0.162 | C=CC(=O)N[C@H]1CCN(c2nc(Nc3cn(C)nc3OC)c3ncn(C(C)C)c3n2)C1 [Example 11, (S)-N-(1-(9-isopropyl-6-((3-methoxy-1-methyl-1H-pyrazol-4-yl)amino)-9H-purin-2-yl)pyrrolidin-3-yl)acrylamide] |
| 0.387 | 0.029 | C=CC(=O)N1CC[C@@H](Nc2nc(Nc3ccc(N4CCN(C)CC4)cc3)c3ncn(C(C)C)c3n2)C1 [Example 27, (R)-1-(3-((9-isopropyl-6-((4-(4-methylpiperazin-1-yl)phenyl)amino)-9H-purin-2-yl)amino)pyrrolidin-1-yl)prop-2-en-1-one] |
| 1.22 | 0.032 | C=CC(=O)N[C@@H]1CN(c2nc(Nc3cn(CC(C)O)nc3OC)c3ncn(CC)c3n2)C[C@H]1F (stereo partly drawn) [Example 86, N-((3R,4R)-1-(9-ethyl-6-((1-(2-hydroxypropyl)-3-methoxy-1H-pyrazol-4-yl)amino) -9H-purin-2-yl)-4-fluoropyrrolidin-3-yl)acrylamide] |
| ≥ 10 | 0.285 | C=CC(=O)N[C@H]1C[C@H](Oc2nc(Nc3ccc(N4CCN(C)CC4)cc3)c3ncn(C(C)C)c3n2)C1 [Example 14, N-((trans)-3-((9-isopropyl-6-((4-(4-methylpiperazin-1-yl)phenyl)amino)-9H-purin-2-yl)oxy)cyclobutyl)acrylamide] |
| 0.609 | 0.029 | C=CC(=O)N[C@@H]1CN(c2nc(Nc3cnn(C4CCN(C)CC4)c3)c3ncn(C(C)(C)C)c3n2)C[C@H]1F [Example 70, N-((3R,4R)-1-(9-(tert-butyl)-6-((1-(1-methylpiperidin-4-yl)-1H-pyrazol-4-yl)amino) -9H-purin-2-yl)-4-fluoropyrrolidin-3-yl)acrylamide] |
| 1.35 | 0.076 | C=CC(=O)N(C)C1CN(c2nc(Nc3cnn(C)c3)c3ncn(C(C)C)c3n2)C1 [Example 31, N-(1-(9-isopropyl-6((1-methyl-1H-pyrazol-4-yl)amino)-9H-purin-2-yl)azetidin-3-yl)-N-methylacrylamide] |
| 0.117 | 0.055 | C=CC(=O)N[C@H]1CCN(c2nc(Nc3ccc(N4CCN(C)CC4)cc3)c3ncn(C4CCC4)c3n2)C1 [Example 15] |
| 0.167 | 0.02 | C=CC(=O)N[C@@H]1CN(c2nc(Nc3cnn(C4CCN(C)CC4)c3)c3ncn(C(C)C)c3n2)C[C@H]1F [Example 71, N-((3R,4R)-4-fluoro-1-(9-isopropyl-6-((1-(1-methylpiperidin-4-yl)-1H-pyrazol-4-yl)amino)-9H-purin-2-yl)pyrrolidin-3-yl)acrylamide] |
| ≥ 10 | 1.04 | C=CC(=O)N1CCCC(c2nc(Nc3cnn(C)c3)c3ncn(C(C)C)c3n2)C1 (single isomer, unassigned) [Example 6, 1-(3-(9-isopropyl-6-((1-methyl-1H-pyrazol-4-yl)amino)-9H-purin-2-yl)piperidin-1-yl)prop-2-en-1-one] |
| 0.095 | 0.011 | C=CC(=O)N[C@H]1CCN(c2nc(Nc3ccc(N4CCN(C)CC4)cc3)c3ncn(CC)c3n2)C1 [Example 35, (S)-N-(1-(9-ethyl-6-((4-(4-methylpiperazin-1-yl)phenyl)amino)-9H-purin-2-yl)pyrrolidin-3-yl)acrylamide] |
| 0.092 | 0.009 | C=CC(=O)N1C[C@@H]2CN(c3nc(Nc4cnn(C)c4)c4ncn(C(C)C)c4n3)C[C@]2(F)C1 (relative stereo) [Example 73, 1-(cis-3a-fluoro-5-(9-isopropyl-6-((1-methyl-1H-pyrazol-4-yl)amino)-9H-purin-2-yl)hexahydropyrrolo[3,4-c]pyrrol-2(1H)-yl)prop-2-en-1-one] |
| 3.85 | 0.082 | C=CC(=O)N1C[C@H](Nc2nc(Nc3cnn(C)c3)c3ncn(C(C)C)c3n2)[C@@H](F)C1 (single isomer, unassigned) [Example 30, 1-((trans*)-3-fluoro-4-((9-isopropyl-6-((1-methyl-1H-pyrazol-4-yl)amino)-9H-purin-2-yl)amino)pyrrolidin-1-yl)prop-2-en-1-one] |
| 0.682 | 0.025 | C=CC(=O)N1CC[C@@H](Oc2nc(Nc3ccc(N4CCN(C)CC4)cc3)c3ncn(C(C)C)c3n2)C1 [Example 26, (R)-1-(3-((9-isopropyl-6-((4-(4-methylpiperazin-1-yl)phenyl)amino)-9H-purin-2-yl)oxy)pyrrolidin-1-yl)prop-2-en-1-one] |
| – | 0.014 | C=CC(=O)N[C@@H]1CN(c2nc(Nc3ccc(N4CCN(C)CC4)cc3)c3ncn(C(C)C)c3n2)C[C@H]1OC (relative stereo) [Example 47, N-((trans)-1-(9-isopropyl-6-((4-(4-methylpiperazin-1-yl)phenyl)amino)-9H-purin-2-yl)-4-methoxypyrrolidin-3-yl)acrylamide] |
| 0.09 | 0.008 | C=CC(=O)N[C@H]1CN(c2nc(Nc3cnn(CCN(C)C)c3)c3ncn(C(C)C)c3n2)C[C@@H]1F [Example 67, N-((3S,4S)-1-(6-((1-(2-(dimethylamino)ethyl)-1H-pyrazol-4-yl)amino)-9-isopropyl-9H-purin-2-yl)-4-fluoropyrrolidin-3-yl)acrylamide] |
| 1.14 | 0.039 | C=CC(=O)N(C)C1CN(c2nc(Nc3ccc(N4CCN(C)CC4)cc3)c3ncn(C(C)C)c3n2)C1 [Example 24, N-(1-(9-isopropyl-6-((4-(4-methylpiperazin-1-yl)phenyl)amino)-9H-purin-2-yl)azetidin-3-yl)-N-methylacrylamide] |
| 2.67 | 0.161 | C=CC(=O)N1C[C@@H]2CN(c3nc(Nc4cnn(C)c4)c4ncn(C)c4n3)C[C@@H]2C1 [Example 34, 1-((cis)-5-(9-methyl-6-((1-methyl-1H-pyrazol-4-yl)amino)-9H-purin-2-yl)hexahydropyrrolo[3,4-c]pyrrol-2(1H)-yl)prop-2-en-1-one] |
| 1.42 | 0.039 | C=CC(=O)NC1CN(c2nc(Nc3ccc(N4CCN(C)CC4)cc3)c3ncn(C(C)C)c3n2)C1 [Example 23, N-(1-(9-isopropyl-6-((4-(4-methylpiperazin-1-yl)phenyl)amino)-9H-purin-2-yl)azetidin-3-yl)acrylamide] |
| 0.707 | 0.018 | C=CC(=O)N[C@@H]1CN(c2nc(Nc3cnn(CCN(C)C)c3)c3ncn(C(C)(C)C)c3n2)C[C@H]1F [Example 68, N-((3R,4R)-1-(9-(tert-butyl)-6-((1-(2-(dimethylamino)ethyl)-1H-pyrazol-4-yl)amino)-9H-purin-2-yl)-4-fluoropyrrolidin-3-yl)acrylamide] |
| 0.983 | 0.058 | C=CC(=O)N1C[C@H](Nc2nc(Nc3cnn(C)c3)c3ncn(C(C)C)c3n2)[C@@H](F)C1 (relative stereo) [Example 58, 1-((trans)-3-fluoro-4-((9-isopropyl-6-((1-methyl-1H-pyrazol-4-yl)amino)-9H-purin-2-yl)amino)pyrrolidin-1-yl)prop-2-en-1-one] |
| 1.39 | 0.317 | C=CC(=O)N[C@H]1CCN(c2nc(Nc3cnn(C)c3)c3ncn(C4(C)CC4)c3n2)C1 [Example 60, (S)-N-(1-(6-((1-methyl-1H-pyrazol-4-yl)amino)-9-(1-methylcyclopropyl)-9H-purin-2-yl)pyrrolidin-3-yl)acrylamide] |
| 3.45 | 0.132 | C=CC(=O)N[C@@H]1CN(c2nc(Nc3cn(CC(C)O)nc3OC)c3ncn(C)c3n2)C[C@H]1F (stereo partly drawn) [Example 83, N-((3R,4R)-4-fluoro-1-(6-((1-(2-hydroxypropyl)-3-methoxy-1H-pyrazol-4-yl)amino)-9-methyl-9H-purin-2-yl)pyrrolidin-3-yl)acrylamide] |
| 1.23 | 0.065 | C=CC(=O)N1CC(C)(Nc2nc(Nc3cnn(C)c3)c3ncn(C(C)C)c3n2)C1 [Example 32, 1-(3-((9-isopropyl-6-((1-methyl-1H-pyrazol-4-yl)amino)-9H-purin-2-yl)amino)-3-methylazetidin-1-yl)prop-2-en-1-one] |
| 4.36 | 0.204 | C=CC(=O)N[C@H]1CCN(c2nc(Nc3ccc(N4CCN(C)CC4)cc3)c3ncn(C(C)CO)c3n2)C1 (stereo partly drawn) [Example 48, N-((3S)-1-(9-(1-hydroxypropan-2-yl)-6-((4-(4-methylpiperazin-1-yl)phenyl)amino) -9H-purin-2-yl)pyrrolidin-3-yl)acrylamide] |
| 0.712 | 0.037 | C=CC(=O)N[C@H]1CCN(c2nc(Nc3cnn([C@H]4CCN(C)C4)c3)c3ncn(C(C)C)c3n2)C1 [Example 69, N—((S)-1-(9-isopropyl-6-((1-((S)-1-methylpyrrolidin-3-yl)-1H-pyrazol-4-yl)amino) -9H-purin-2-yl)pyrrolidin-3-yl)acrylamide] |
| 7.61 | 0.391 | C=CC(=O)N[C@H]1CCN(c2nc(Nc3cn(C)nc3C)c3ncn(C(C)C)c3n2)C1 [Example 37, (S)-N-(1-(6-((1,3-dimethyl-1H-pyrazol-4-yl)amino)-9-isopropyl-9H-purin-2-yl)pyrrolidin-3-yl)acrylamide] |
